The source of these data is ChEMBL document CHEMBL3886918, “Pyrimidine compounds useful in the treatment of diseases mediated by IKKE and/or TBK1 mechanisms” (2016).

In the test the target is T1, Serine/threonine-protein kinase TBK1 (Homo sapiens, UniProt Q9UHD2).
T1 sequence (Q9UHD2 whole entry): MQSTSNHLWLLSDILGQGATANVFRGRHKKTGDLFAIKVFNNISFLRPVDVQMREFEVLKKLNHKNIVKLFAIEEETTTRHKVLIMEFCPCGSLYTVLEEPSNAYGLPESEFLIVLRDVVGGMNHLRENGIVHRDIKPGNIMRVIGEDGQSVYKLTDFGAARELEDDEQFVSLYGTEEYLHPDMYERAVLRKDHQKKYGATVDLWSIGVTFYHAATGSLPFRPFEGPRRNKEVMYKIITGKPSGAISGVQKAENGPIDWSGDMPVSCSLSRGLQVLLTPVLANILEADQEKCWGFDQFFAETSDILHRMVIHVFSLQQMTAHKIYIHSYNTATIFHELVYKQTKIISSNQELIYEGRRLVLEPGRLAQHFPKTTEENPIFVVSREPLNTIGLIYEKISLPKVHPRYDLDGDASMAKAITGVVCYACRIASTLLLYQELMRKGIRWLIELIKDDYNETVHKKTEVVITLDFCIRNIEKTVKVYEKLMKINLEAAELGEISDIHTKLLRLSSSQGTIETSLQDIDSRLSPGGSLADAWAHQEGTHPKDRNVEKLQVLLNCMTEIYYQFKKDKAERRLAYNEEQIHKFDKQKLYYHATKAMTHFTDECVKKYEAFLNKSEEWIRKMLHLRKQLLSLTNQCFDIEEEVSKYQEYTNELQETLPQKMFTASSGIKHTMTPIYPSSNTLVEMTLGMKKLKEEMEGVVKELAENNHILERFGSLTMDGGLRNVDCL
Nature of the test: Time-Resolved Fluorescence-based Lanthascreen Assay: Kinase inhibition assays (10 μL) were performed at 20° C. in 384-well plate format. Compound IC50 values were determined at the apparent Km for ATP (20 μM) based on a radiometric assay (Invitrogen) using 8 or 10 point curves in duplicate. The final reaction conditions contained 400 nM fluorescein-IkBα substrate ([…]), 20 μM ATP, 2 nM or 8 nM IKKε or TBK1 kinase respectively, and 3% DMSO in kinase assay buffer consisting of 50 mM HEPES (pH 7.5), 10 mM MgCl, 1 mM EGTA, 0.01% Brij-35.Compound dilutions were prepared from 10 mM DMSO stocks by dilution into DMSO. Compound dilution series were further diluted in kinase assay buffer to give a 12% DMSO stock, the final concentration in the assay being 3% DMSO.The kinase phosphorylation assay was initiated by the addition of the kinase and the reaction was allowed to proceed for 1 h or 2.5 h for IKKε and TBK-1 kinase respectively. In general terms: TR-FRET usually uses a lanthanide donor and a delayed reading to cut background.
Turning to `CC(=O)NC1CCN(c2ncc(-c3ccnc(Nc4ccc(CN5CCOCC5)nc4)n3)cc2C#N)C1` (stereo not given), the IC50 (usually the concentration needed to halve the response being measured) was less than 1000 nM.
The figure for `N#Cc1cc(-c2nc(Nc3ccnc(NC(=O)CN4CCOCC4)c3)ncc2F)cnc1N1CC[C@H](F)C1` is less than 30 nM; for `N#Cc1cc(-c2ccnc(Nc3ccc(N)nc3)n2)cnc1N1CC[C@H](F)C1` it is less than 30 nM; for `N#Cc1cc(-c2ccnc(Nc3ccc(CN4C(=O)OCC4CO)nc3)n2)cnc1N1CC[C@H](F)C1` (stereo not given in full) it is less than 30 nM.
As to `N#Cc1cc(-c2ccnc(Nc3cccc(C(=O)N4CCNCC4)c3)n2)cnc1N1CC[C@H](F)C1`, the IC50 was less than 30 nM.
